In a polymer gas permeability compilation:

Structure (SMILES)	CH4 permeability [Barrer]	CO2 permeability [Barrer]	H2 permeability [Barrer]	N2 permeability [Barrer]	O2 permeability [Barrer]
*Oc1c(Br)cc(C2(c3cc(Br)c(OC(=O)c4cccc(C(*)=O)c4)c(Br)c3)OC(=O)c3ccccc32)cc1Br (repeat unit)	0.206	8.34	27.1	0.282	1.96
*c1ccc(-c2ccc(Oc3ccc(C4(c5ccc(Oc6ccc(-c7ccc(N8C(=O)c9ccc(Oc%10ccc%11c(c%10)C(=O)N(*)C%11=O)cc9C8=O)cc7)cc6C(F)(F)F)cc5)c5ccccc5C(=O)N4c4ccccc4)cc3)c(C(F)(F)F)c2)cc1 (repeat unit)	0.84	14.6	–	0.96	4.22
*c1c(C)cc(C)c(N2C(=O)c3ccc(C(c4ccc5c(c4)C(=O)N(*)C5=O)(C(F)(F)F)C(F)(F)F)cc3C2=O)c1C (repeat unit)	20.4	422	435	24.3	87.7
*Oc1ccc(S(=O)(=O)c2ccc(Oc3c(C)cc(C(c4cc(C)c(*)c(C)c4)(C(F)(F)F)C(F)(F)F)cc3C)cc2C(O)(C(F)(F)F)C(F)(F)F)c(C(O)(C(F)(F)F)C(F)(F)F)c1 (repeat unit)	–	81	–	5.92	14
*CC(*)c1ccc(O)cc1 (repeat unit)	–	–	–	0.015	0.12
*Oc1ccc(C2(c3ccc(OC(=O)c4cc(C(*)=O)cc(C(C)(C)C)c4)cc3)OC(=O)c3ccccc32)cc1 (repeat unit)	1.16	23.8	41.3	1.06	5.6
*c1ccc(Sc2ccc(Sc3ccc(N4C(=O)c5ccc(C(c6ccc7c(c6)C(=O)N(*)C7=O)(C(F)(F)F)C(F)(F)F)cc5C4=O)cc3)cc2)cc1 (repeat unit)	0.28	8.92	–	0.34	1.77
*Oc1cccc2c(Oc3ccc(S(=O)(=O)c4ccc(*)cc4)cc3)cccc12 (repeat unit)	0.036	1.6	–	0.057	0.42
*Oc1ccc(C(c2ccc(Oc3ccc(S(=O)(=O)c4ccc(*)cc4)cc3)cc2)(C(F)(F)F)C(F)(F)F)cc1 (repeat unit)	0.55	12	–	0.67	3.4
*[Si](C)(C)c1cccc([Si](*)(C)C)c1 (repeat unit)	–	–	–	31.9	75.6
*C(=O)c1ccc(C2(c3ccc(C(=O)c4ccc(Oc5ccc(C(=O)c6ccc(C(=O)c7ccc(Oc8ccc(*)cc8)cc7)cc6)cc5)cc4)cc3)OC(=O)c3ccccc32)cc1 (repeat unit)	0.069	2.14	7.5	0.0729	0.51
*/C(C)=C(/*)[Si](C)(C)CCC (repeat unit)	44	230	250	21	70
*c1c(C)cc(C)c(N2C(=O)c3ccc(C(=O)c4ccc5c(c4)C(=O)N(*)C5=O)cc3C2=O)c1C (repeat unit)	–	–	46.4	1	5
*CC(*)C(=O)OC (repeat unit)	0.262	8.19	10.6	0.213	1.06
*CC(*)[Si](C)(C)C (repeat unit)	18	190	200	11	44
*Oc1ccc(S(=O)(=O)c2ccc(-c3ccc(S(=O)(=O)c4ccc(Oc5ccc(C(C)(C)c6ccc(*)cc6)cc5)cc4)cc3)cc2)cc1 (repeat unit)	0.5	10.8	20.1	0.469	2.39
*c1cccc(N2C(=O)c3ccc(Oc4ccc(Oc5ccc6c(c5)C(=O)N(*)C6=O)cc4)cc3C2=O)c1 (repeat unit)	–	0.598	3.75	0.016	0.149
*c1ccc(-c2ccc(Oc3ccc4c(c3)C(C)(c3ccc(Oc5ccc(-c6ccc(-n7c(=O)c8cc9c(=O)n(*)c(=O)c9cc8c7=O)cc6)cc5C(F)(F)F)cc3)CC4(C)C)c(C(F)(F)F)c2)cc1 (repeat unit)	1.52	44.7	–	2.36	12.2
*Oc1ccc(C2(c3ccc(Oc4ccc(S(=O)(=O)c5ccc(*)cc5)cc4)cc3)C3CC4CC(C3)CC2C4)cc1 (repeat unit)	0.327	7.2	17.3	0.332	1.86
*OC1OC(OC(C)=O)C(*)C(O)C1OC(C)=O (repeat unit)	0.15	3.5	12	0.14	0.735
*C1C(*)C2CC1C1C2C([Si](C)(C)C)C1[Si](C)(C)C (repeat unit)	3310	11300	4090	1240	2380
